Data published in patent EP0587396A1, “Use of hypoxoside derivatives for the treatment of viral infections” (VIROSTAT (NA) NV, priority 1992, dated 1994).
Where two headings read alike, the source gives them in different places.

Columns and labels:
Type in all cases: cell-based
cytomegalo-virus (CMV) = experiment: Cytopathic effect of CMV in primary foetal human fibroblasts
Description: (§1) Compound XVII was added to primary foetal human fibroblasts in tissue culture, to yield final concentrations respectively of 50, 100 and 200 µg/mℓ. The cultures were then respectively inoculated with a high standard viral dose, with one tenth (1/10) of said standard dose and with one fiftieth (1/50) of said standard dose of cytomegalo-virus (CMV) and incubated for four days.
The cytopathic effect of CMV was determined by microscopic visual inspection of the cell cultures, in terms of the extent of gross swelling of the cells, where: a = 0 - 25%, b = 25 - 50%, c = 50 - 75% and d = 75 - 100% of the cells affected by gross swelling.

[1] = tested on: respiratory syncytial virus (RSV); experiment: Inhibition of RSV syncytium formation in Hep-2 cells
Description: Compound XVIII was added to Hep-2 cells growing as slope cultures in plastics tubes to give final concentrations respectively of 50, 100 and 200 µg/mℓ. The cultures were then respectively inoculated with a high standard viral dose, one tenth (1/10) of said standard dose, and one hundredth (1/100) of said standard dose of respiratory syncytial virus (RSV). After four days of incubation at 33°C the cells were visually inspected using an inverted phase contrast microscope and scored for the extent of syncytium formation, i.e. single cells containing three or more nuclei, as follows: a = 0 - 25%, b = 25 - 50%, c = 50 - 75% and d = 75 - 100% of cells having three or more nuclei.

[2] = Toxicity: lymphocyte proliferation assay with MTT in the HIV-1 infected PBL cultures; conditions: human, pbls, Table 8 continued (6 days incubation), read-out: Proliferation as a percentage of control value
Description: Possible toxic effects of the test substances were measured by viability testing using Trypan blue or a proliferation assay using3-(4,5-dimethylthiazol-2-yl)-2,5-diphenyl-2H-tetrazolium bromide (MTT) on day 4 or day 6 after initiation of the experiment (Borenfreund et al: Toxicol. In Vitro, 1988, 2, 1-6).
The toxicity of the drug was expressed as a percentage inhibition of lymphocyte proliferation as measured with MTT and compared with controls receiving the virus but no drug.

[3] = as above; conditions: human, pbls, Table 8 (3 days incubation), read-out: Proliferation as a percentage of control value
[4] = tested on: human immunodeficiency virus type 1 (HIV-1); experiment: Inhibition of HIV-1 proliferation in PHA-activated human PBL's (p24 core protein by Sandwich ELISA, HIV RNA by labelled DNA probe hybridization); conditions: for inhibition at 50 µg/mL: read-out: % inhibition:HIV-RNA, 50 μg/mℓ; for inhibition at 100 µg/mL: read-out: % inhibition:HIV-RNA, 100 μg/mℓ
Description: Compounds I - XXVIII were subjected to in vitro testing for inhibition of human immunodeficiency virus type 1 (HIV-1) proliferation as follows:
Human peripheral blood lymphocytes (PBL's) obtained by density gradient centrifugation of blood from healthy volunteers at a blood bank were pooled and used for the propagation of HIV-1 in vitro.
The PBL's were polyclonally activated with phytohaemagglutinin (PHA) and subjected to quality controls whereby their viability was tested with Trypan blue exclusion and the expression of activation antigens, CD4⁺ and CD25⁺ was measured by immunofluorescence. Prior to adding the test substance, the activated PBL's were exposed to a standardized titre of HIV-1 virus and after incubation for 60 minutes the cells were washed twice and plated into microtitre plates at a concentration of 2X10⁶ cells/well. The medium contained interleukin-2 and in control wells the virus produced between 50 and 100 ng/mℓ of p24 core protein on day 4. The test substance was added to these cultures either in water or dimethyl sulphoxide (DMSO) depending on solubility characteristics. The final DMSO concentration, when used, was always 1% v/v.
HIV replication was measured as the production of p24 core protein and the production of HIV RNA on days 2, 3 and 4, or on days 3, 4, 5 and 6. Core protein p24 was measured using 'Sandwich ELISA' technology using inter alia a monoclonal antibody against p24 core protein. The HIV RNA was measured using a specific labelled DNA probe against HIV RNA and the process of hybridization.
Results were expressed as percent inhibition of HIV-1 p24 core protein production or RNA production on days 3, 4 or 6.
In each test, cells were also exposed to HIV-1 and 3'-azido-3'-deoxythymidine (also known as Zidovudine or AZT) at 100, 10, 1 and 0.1 ng/mℓ. This was a positive control and compounds tested were compared to the inhibitory effect of 10 ng/mℓ AZT.
In all of the following Tables, percentage inhibition refers to inhibition of p24 core protein production and HIV RNA production relative to infected controls. Percentage AZT inhibition refers to inhibition caused by 10 ng/mℓ AZT at the end of the experiment, i.e. after 4 or 6 days.

[5] = tested on: primary foetal human fibroblasts; experiment: Signs of toxicity in the fibroblast cultures of the CMV test; conditions: 200 µg/mℓ
Description: as §1

[6] = Human immunodeficiency virus 1, 72 h, 3 days incubation
[7] = Human immunodeficiency virus 1, 144 h, 6 days incubation

SMILES: O=S(=O)(O)Oc1ccc(C#CC/C=C/c2ccc(OS(=O)(=O)O)c(O)c2)cc1O [Compound XVII]
- Extent of the Cytopathic Effect of Cytomegalo-Virus (cytomegalo-virus (CMV); 50 µg/mℓ, viral dose 1/10, 4 days of incubation (virus control b+)): b (b = 25 - 50%)
- Extent of the Cytopathic Effect of Cytomegalo-Virus (cytomegalo-virus (CMV); 50 µg/mℓ, viral dose 1/50, 4 days of incubation (virus control a)): a (a = 0 - 25%)
- Extent of the Cytopathic Effect of Cytomegalo-Virus (cytomegalo-virus (CMV); 50 µg/mℓ, viral dose Full, 4 days of incubation (virus control c)): bc
- Extent of the Cytopathic Effect of Cytomegalo-Virus (cytomegalo-virus (CMV); 100 µg/mℓ, viral dose 1/10, 4 days of incubation (virus control b+)): ab
- Extent of the Cytopathic Effect of Cytomegalo-Virus (cytomegalo-virus (CMV); 100 µg/mℓ, viral dose 1/50, 4 days of incubation (virus control a)): a-
- Extent of the Cytopathic Effect of Cytomegalo-Virus (cytomegalo-virus (CMV); 100 µg/mℓ, viral dose Full, 4 days of incubation (virus control c)): bc
- Extent of the Cytopathic Effect of Cytomegalo-Virus (cytomegalo-virus (CMV); 200 µg/mℓ, viral dose 1/10, 4 days of incubation (virus control b+)): Nil
- Extent of the Cytopathic Effect of Cytomegalo-Virus (cytomegalo-virus (CMV); 200 µg/mℓ, viral dose 1/50, 4 days of incubation (virus control a)): Nil
- Extent of the Cytopathic Effect of Cytomegalo-Virus (cytomegalo-virus (CMV); 200 µg/mℓ, viral dose Full, 4 days of incubation (virus control c)): Nil
- Extent of Syncytium Formation ([1]; 50 µg/mℓ, viral dose 1/10, 4 days at 33°C (virus control c)): c (c = 50 - 75%)
- Extent of Syncytium Formation ([1]; 50 µg/mℓ, viral dose 1/100, 4 days at 33°C (virus control b)): a (a = 0 - 25%)
- Extent of Syncytium Formation ([1]; 50 µg/mℓ, viral dose Full, 4 days at 33°C (virus control d)): d (d = 75 - 100% of cells having three or more nuclei)
- Extent of Syncytium Formation ([1]; 100 µg/mℓ, viral dose 1/10, 4 days at 33°C (virus control c)): a (a = 0 - 25%)
- Extent of Syncytium Formation ([1]; 100 µg/mℓ, viral dose 1/100, 4 days at 33°C (virus control b)): Nil
- Extent of Syncytium Formation ([1]; 100 µg/mℓ, viral dose Full, 4 days at 33°C (virus control d)): c (c = 50 - 75%)
- Extent of Syncytium Formation ([1]; 200 µg/mℓ, viral dose 1/10, 4 days at 33°C (virus control c)): Nil
- Extent of Syncytium Formation ([1]; 200 µg/mℓ, viral dose 1/100, 4 days at 33°C (virus control b)): Nil
- Extent of Syncytium Formation ([1]; 200 µg/mℓ, viral dose Full, 4 days at 33°C (virus control d)): Nil
- viability ([2]; 50 μg/mℓ): 96%
- viability ([2]; 100 μg/mℓ): 94%
- viability ([3]; 50 μg/mℓ): 84%
- viability ([3]; 100 μg/mℓ): 80%
- % inhibition:p24 core protein ([4]; 50 μg/mℓ, 3 days incubation): 47%
- % inhibition:p24 core protein ([4]; 50 μg/mℓ, 6 days incubation): 87%
- % inhibition:p24 core protein ([4]; 100 μg/mℓ, 3 days incubation): 88%
- inhibition at 50 µg/mL [4, 6]: 68%
- inhibition at 100 µg/mL [4, 6]: 93%
- inhibition at 50 µg/mL [4, 7]: 91%
- inhibition at 100 µg/mL [4, 7]: 100%
- cultures showing signs of toxicity due to the compound [5]: 5 out of 8
